Columns and labels:
Type in all cases: cell-based
[1] = test system: Klebsiella pneumonia; assay: MIC against Gram-negative bacteria: Klebsiella pneumonia; conditions: 5×10^5 CFU/mL
Method: (§1) 1. Gram-negative bacteria, such as E. coli BL21, Pseudomonas aeruginosa, Klebsiella pneumonia, Enterobacter cloacae, Aeromonas hydrophila, Citrobacter diversus, Moraxella catarrhalis, Proteus mirabilis, Proteus vulgaris, Serratia marcescens, etc were streaked on solid LB medium and cultured respectively. Then, typical clones were picked, inoculated into common liquid LB medium respectively, and cultured at 37° C. with shaking at 185 rpm until the McFarland specific turbidity was 0.5. The bacterial culture of each of Gram-negative bacteria was centrifuged at 4000×g for 3 min, the supernatant was discarded, and the thalli were resuspended with fresh LB medium.
(§2) 2. The above-mentioned bacterial suspensions were diluted and inoculated into 96-well plates with the final concentration of the bacterial suspension being 5×10^5 CFU/mL per well.
(§3) 3. Each of the purified human-originated EGF domain proteins (PRT1 to PRT1498 in Table 1) was added to each of the above wells and subjected to two-fold serial dilution in concentration. Three parallel wells were set up for each concentration in the gradient.
(§4) 4. The above-mentioned 96-well plates were placed and cultured at 37° C. in shaking incubator shaking at 175 rpm. […] The minimal inhibitory concentration MIC is defined as the lowest concentration of the recombinant protein at which there is no growth of the bacteria.

[2] = test system: Aeromonas hydrophila; assay: MIC against Gram-negative bacteria: Aeromonas hydrophila; conditions: 5×10^5 CFU/mL
Method: as §1, §2, §3, §4

[3] = test system: Proteus vulgaris; assay: MIC against Gram-negative bacteria: Proteus vulgaris; conditions: 5×10^5 CFU/mL
Method: as §1, §2, §3, §4

[4] = test system: Pseudomonas aeruginosa; assay: MIC against Gram-negative bacteria: Pseudomonas aeruginosa; conditions: 5×10^5 CFU/mL
Method: as §1, §2, §3, §4

[5] = test system: E. coli BL21; assay: MIC against Gram-negative bacteria: E. coli BL21; conditions: 5×10^5 CFU/mL
Method: as §1, §2, §3, §4

[6] = test system: Proteus mirabilis; assay: MIC against Gram-negative bacteria: Proteus mirabilis; conditions: 5×10^5 CFU/mL
Method: as §1, §2, §3, §4

[7] = test system: Moraxella catarrhalis; assay: MIC against Gram-negative bacteria: Moraxella catarrhalis; conditions: 5×10^5 CFU/mL
Method: as §1, §2, §3, §4

[8] = test system: Citrobacter diversus; assay: MIC against Gram-negative bacteria: Citrobacter diversus; conditions: 5×10^5 CFU/mL
Method: as §1, §2, §3, §4

[9] = test system: E. coli DH5α; assay: Antibacterial activity: MIC and growth curve against E. coli DH5α in 96-well plate; conditions: minimal inhibitory concentration against E. coli DH5α; 96-well plate, 5×10^5 CFU/mL, 37° C., judged after 8 h
Method: 1. E. coli DH5α was exemplified. E. coli DH5α was streaked and cultured on LB solid medium. Then, a typical clone was picked and inoculated into common LB liquid medium, cultured at 37° C. with shaking at 185 rpm until the logarithmic growth phase was reached (OD600 of about 0.5). The bacterial culture was centrifuged at 4000×g for 3 min, the supernatant was discarded, and the thalli were resuspended with fresh LB medium.
2. The above-mentioned bacterial suspension was diluted and inoculated into a 96-well plate with the total volume of 100 μL per well and a bacterial count of 5×10^5 CFU/mL.
3. The recombinant protein hF VII-EGF1 was added to the above-mentioned wells with the final protein concentration in the well of the highest protein concentration being 50 μg/mL. Basing on this final concentration, a two-fold serial dilution was performed till a protein concentration gradient consisting of 50, 25, and 12.5 μg/mL was set up. Three parallel wells were set up for each concentration in the gradient.
4. The above-mentioned 96-well plate was placed and cultured at 37° C. in shaking incubator shaking at 175 rpm. Samples were taken every 30 min, the absorbance values were determined at 600 nm wavelength under a ultra violet spectrophotometer, and an inhibition curve was plotted. […] The minimal inhibitory concentration MIC is defined as the lowest concentration of the recombinant protein at which there is no growth of the bacteria.
According to the experimental procedures in Example 14, the minimal inhibitory concentrations (MIC, μg/mL) of the other human-originated EGF domain proteins (PRT2 to PRT1498 in Table 1) for E. coli DH5α were determined.

[10] = test system: Serratia marcescens; assay: MIC against Gram-negative bacteria: Serratia marcescens; conditions: 5×10^5 CFU/mL
Method: as §1, §2, §3, §4

[11] = test system: Enterobacter cloacae; assay: MIC against Gram-negative bacteria: Enterobacter cloacae; conditions: 5×10^5 CFU/mL
Method: as §1, §2, §3, §4

[12] = 10 h cultivation at 37° C., two-fold serial dilution

PRT563 (CVCNYLGTVQEHCNGSDCQCDKATGQCLCLPNVIGQNCDRCAPNTWQLASGTGCDP; listed as Homo sapiens)
25 µg/mL: MIC against P. aeruginosa ([4]; 96-well plate, 37° C., 10 h) | MIC against P. mirabilis ([6]; 96-well plate, 37° C., 10 h) | MIC against C. diversus ([8]; 96-well plate, 37° C., 10 h) | MIC [9] | MIC against S. marcescens ([10]; 96-well plate, 37° C., 10 h) | MIC against E. cloacae ([11]; 96-well plate, 37° C., 10 h)
50 µg/mL: MIC against K. pneumonia ([1]; 96-well plate, 37° C., 10 h) | MIC against M. catarrhalis ([7]; 96-well plate, 37° C., 10 h)
12.5 µg/mL: MIC against A. hydrophila ([2]; 96-well plate, 37° C., 10 h) | MIC against P. vulgaris ([3]; 96-well plate, 37° C., 10 h) | MIC against E. coli BL21 ([5]; 96-well plate, 37° C., 10 h)

PRT1086 (HFKPCRDKDLAYCLNDGECFVIETLTGSHKHCRCKEGYQGVRCD; listed as Homo sapiens)
12.5 µg/mL: MIC P. mirabilis [6, 12] | MIC [9] | MIC S. marcescens [10, 12] | MIC E. cloacae [11, 12]
25 µg/mL: MIC K. pneumonia [1, 12] | MIC A. hydrophila [2, 12] | MIC E. coli BL21 [5, 12] | MIC M. catarrhalis [7, 12]
50 µg/mL: MIC P. vulgaris [3, 12] | MIC P. aeruginosa [4, 12] | MIC C. diversus [8, 12]

PRT226 (DIDECESGAHQCSEAQTCVNFHGGYRCVDTNRCVEPYIQVSENRCL; listed as Homo sapiens)
50 µg/mL: MIC (μg/mL) C. diversus ([8]; C. diversus, 10 h cultivation at 37° C.) | MIC [9] | MIC (μg/mL) E. cloacae ([11]; E. cloacae, 10 h cultivation at 37° C.)
12.5 µg/mL: MIC (μg/mL) A. hydrophila ([2]; A. hydrophila, 10 h cultivation at 37° C.) | MIC (μg/mL) P. vulgaris ([3]; P. vulgaris, 10 h cultivation at 37° C.) | MIC (μg/mL) P. aeruginosa ([4]; P. aeruginosa, 10 h cultivation at 37° C.) | MIC (μg/mL) P. mirabilis ([6]; P. mirabilis, 10 h cultivation at 37° C.) | MIC (μg/mL) M. catarrhalis ([7]; M. catarrhalis, 10 h cultivation at 37° C.) | MIC (μg/mL) S. marcescens ([10]; S. marcescens, 10 h cultivation at 37° C.)
25 µg/mL: MIC (μg/mL) K. pneumonia ([1]; K. pneumonia, 10 h cultivation at 37° C.) | MIC (μg/mL) E. coli BL21 ([5]; 10 h cultivation at 37° C.)

PRT584 (CQCSHEGALSSLCEKTSGQCLCRTGAFGLRCDRCQRGQWGFPSCRP; listed as Homo sapiens)
50 µg/mL: MIC against K. pneumonia ([1]; 96-well plate, 37° C., 10 h) | MIC against A. hydrophila ([2]; 96-well plate, 37° C., 10 h) | MIC against P. vulgaris ([3]; 96-well plate, 37° C., 10 h) | MIC against E. coli BL21 ([5]; 96-well plate, 37° C., 10 h) | MIC against M. catarrhalis ([7]; 96-well plate, 37° C., 10 h) | MIC [9]
25 µg/mL: MIC against P. aeruginosa ([4]; 96-well plate, 37° C., 10 h) | MIC against P. mirabilis ([6]; 96-well plate, 37° C., 10 h) | MIC against C. diversus ([8]; 96-well plate, 37° C., 10 h) | MIC against S. marcescens ([10]; 96-well plate, 37° C., 10 h) | MIC against E. cloacae ([11]; 96-well plate, 37° C., 10 h)

PRT6 (TRKLCSLDNGDCDQFCHEEQNSVVCSCARGYTLADNGKACI; listed as Homo sapiens)
25 µg/mL: MIC (μg/mL) P. vulgaris ([3]; Proteus vulgaris, 96-well plate, 37° C., 10 h) | MIC (μg/mL) P. aeruginosa ([4]; Pseudomonas aeruginosa, 96-well plate, 37° C., 10 h) | MIC (μg/mL) M. catarrhalis ([7]; Moraxella catarrhalis, 96-well plate, 37° C., 10 h) | MIC (μg/mL) C. diversus ([8]; Citrobacter diversus, 96-well plate, 37° C., 10 h) | MIC (μg/mL) S. marcescens ([10]; Serratia marcescens, 96-well plate, 37° C., 10 h) | MIC (μg/mL) E. cloacae ([11]; Enterobacter cloacae, 96-well plate, 37° C., 10 h)
12.5 µg/mL: MIC (μg/mL) A. hydrophila ([2]; Aeromonas hydrophila, 96-well plate, 37° C., 10 h) | MIC (μg/mL) P. mirabilis ([6]; Proteus mirabilis, 96-well plate, 37° C., 10 h)
50 µg/mL: MIC (μg/mL) K. pneumonia ([1]; Klebsiella pneumonia, 96-well plate, 37° C., 10 h) | MIC (μg/mL) E. coli BL21 ([5]; 96-well plate, 37° C., 10 h) | MIC [9]
